Laboratory results as given in ChEMBL document CHEMBL1140860, “Synthesis and evaluation of dihydroartemisinin and dihydroartemisitene acetal dimers showing anticancer and antiprotozoal activity” (Bioorg Med Chem, 2009).

What was measured:
SF-268 = experiment: Growth inhibition of human SF268 cells after 48 hrs by sulforhodamine B assay; assay type: functional; details: SF-268, 48 h
UACC-257 = experiment: Growth inhibition of human UACC257 cells after 48 hrs by sulforhodamine B assay; assay type: functional; details: UACC-257, 48 h
Mus musculus [1] = experiment: Toxicity in human HL60 cells xenografted athymic nude mouse assessed as body weight loss at 25 mg/kg, sc administered QD for 10 days relative to control; assay type: organism-based, HL-60; set-up: dose 25 mg/kg, route subcutaneous; details: in vivo, 240 h
SK-MEL-2 = experiment: Growth inhibition of human SK-MEL-2 cells after 48 hrs by sulforhodamine B assay; assay type: functional; details: SK-MEL-2, 48 h
HL-60 [2] = experiment: Antitumor activity against human HL60 cells xenografted athymic nude mouse at 25 mg/kg, sc administered QD for 10 days relative to control; assay type: functional; details: route subcutaneous
SF-295 = experiment: Growth inhibition of human SF295 cells after 48 hrs by sulforhodamine B assay; assay type: functional; details: SF-295, 48 h
SK-OV-3 = experiment: Growth inhibition of human SKOV3 cells after 48 hrs by sulforhodamine B assay; assay type: functional; details: SK-OV-3, 48 h
Malme-3M = experiment: Growth inhibition of human MALME-3M cells after 48 hrs by sulforhodamine B assay; assay type: functional
RXF 393 = experiment: Growth inhibition of human RXF393 cells after 48 hrs by sulforhodamine B assay; assay type: functional; details: RXF 393, 48 h
HUVEC [3] = experiment: Antiangiogenic activity against HUVEC assessed as inhibition of VEGF-induced cell migration by NCI antiangiogenesis assay; assay type: functional, cell-based; details: Homo sapiens
HUVEC [4] = experiment: Antiangiogenic activity against HUVEC assessed as inhibition of capillary-like structure formation by NCI antiangiogenesis assay; assay type: functional, cell-based; details: Homo sapiens
MOLT-4 = experiment: Growth inhibition of human MOLT4 cells after 48 hrs by sulforhodamine B assay; assay type: functional; details: MOLT-4, 48 h
Mus musculus [5] = experiment: Toxicity in human HL60 cells xenografted athymic nude mouse assessed as mortality at 50 mg/kg, sc administered QD for 10 days; assay type: organism-based, HL-60; set-up: dose 50 mg/kg, route subcutaneous; details: in vivo, 240 h
HL-60 [6] = experiment: Antitumor activity against human HL60 cells xenografted athymic nude mouse assessed as delay in tumor growth time at 25 mg/kg, sc administered QD; assay type: functional; details: route subcutaneous
SF-539 = experiment: Growth inhibition of human SF539 cells after 48 hrs by sulforhodamine B assay; assay type: functional; details: SF-539, 48 h
Mus musculus [7] = experiment: Toxicity in human HL60 cells xenografted athymic nude mouse assessed as mortality at 25 mg/kg, sc administered QD for 10 days; assay type: organism-based, HL-60; set-up: dose 25 mg/kg, route subcutaneous; details: in vivo, 240 h
OVCAR-4 = experiment: Growth inhibition of human OVCAR4 cells after 48 hrs by sulforhodamine B assay; assay type: functional; details: OVCAR-4, 48 h
HUVEC [8] = experiment: Antiangiogenic activity against HUVEC assessed as growth inhibition by NCI antiangiogenesis assay; assay type: functional, cell-based; details: Homo sapiens
SW-620 = experiment: Growth inhibition of human SW620 cells after 48 hrs by sulforhodamine B assay; assay type: functional; details: SW-620, 48 h
DU-145 = experiment: Growth inhibition of human DU145 cells after 48 hrs by sulforhodamine B assay; assay type: functional; details: DU-145, 48 h
[9] = Selectivity index, ratio of TC50 for african green monkey (Cercopithecus aethiops) Vero cells to IC50 for chloroquine-resistant Plasmodium falciparum W2; assay type: toxicity, cell-based
MDA-N = experiment: Growth inhibition of human MDA-N cells after 48 hrs by sulforhodamine B assay; assay type: functional
Leishmania donovani = experiment: Antileishmanial activity against Leishmania donovani promastigotes after 48 hrs by alamar-blue assay; assay type: functional, organism-based
HL-60 [10] = experiment: Antitumor activity against human HL60 cells xenografted athymic nude mouse at 50 mg/kg, sc administered QD for 10 days relative to control; assay type: functional; details: route subcutaneous
HL-60 [11] = experiment: Antitumor activity against human HL60 cells xenografted athymic nude mouse assessed as delay in tumor growth time at 50 mg/kg, sc administered QD; assay type: functional; details: route subcutaneous
Mus musculus [12] = experiment: Toxicity in human HL60 cells xenografted athymic nude mouse assessed as body weight loss at 50 mg/kg, sc administered QD for 10 days relative to control; assay type: organism-based, HL-60; set-up: dose 50 mg/kg, route subcutaneous; details: in vivo, 240 h

| SMILES | GI50 (SF-268) | GI50 (UACC-257) | Activity (Mus musculus [1]) | GI50 (SK-MEL-2) | GI50 (SF-295) | GI50 (SK-OV-3) | GI50 (Malme-3M) | GI50 (RXF 393) | IC50 (HUVEC [3]) | IC50 (HUVEC [4]) | GI50 (MOLT-4) | GI50 (SF-539) | GI50 (OVCAR-4) | IC50 (HUVEC [8]) | GI50 (SW-620) | GI50 (DU-145) | selectivity ratio [9] | GI50 (MDA-N) | IC50 (Leishmania donovani) | IC90 (Leishmania donovani) | also measured |
| --- | --- | --- | --- | --- | --- | --- | --- | --- | --- | --- | --- | --- | --- | --- | --- | --- | --- | --- | --- | --- | --- |
| C[C@H]1[C@@H](OCC(CO[C@H]2O[C@@H]3O[C@@]4(C)CC[C@H]5[C@H](C)CC[C@@H]([C@H]2C)[C@@]35OO4)OC(=O)CCC(=O)O)O[C@@H]2O[C@@]3(C)CC[C@H]4[C@H](C)CC[C@@H]1[C@@]24OO3 (stereo not given in full) | 2180 nM | 46 nM | 1% | 5200 nM | 34 nM | 27200 nM | 4050 nM | < 10 nM | 45300 nM | 45800 nM | 290 nM | 616 nM | 58 nM | 56000 nM | 29 nM | – | – | – | – | – | T/C (HL-60 [2]): 23%; Activity (Mus musculus [5]): Toxic; Activity (HL-60 [6]): 30 days; Activity (Mus musculus [7]): Non-toxic |
| COCC(CO[C@H]1O[C@@H]2O[C@@]3(C)CC[C@H]4[C@H](C)CC[C@@H]([C@H]1C)[C@@]24OO3)O[C@H]1O[C@@H]2O[C@@]3(C)CC[C@H]4[C@H](C)CC[C@@H]([C@H]1C)[C@@]24OO3 (stereo not given in full) | 6290 nM | 159 nM | – | 122 nM | 4630 nM | 10900 nM | 8130 nM | 2970 nM | – | – | 27 nM | 4040 nM | 5690 nM | – | 15 nM | 8340 nM | > 159 | 518 nM | – | – | – |
| C[C@H]1[C@H](OCCO[C@H]2O[C@@H]3O[C@@]4(C)CC[C@H]5[C@H](C)CC[C@@H]([C@H]2C)[C@@]35OO4)O[C@@H]2O[C@@]3(C)CC[C@H]4[C@H](C)CC[C@@H]1[C@@]24OO3 | 7540 nM | 54 nM | – | 212 nM | 1100 nM | 17900 nM | 235 nM | 54 nM | – | – | 15 nM | 63 nM | 41 nM | – | 25 nM | 8190 nM | > 37 | 61 nM | – | – | – |
| C[C@H]1[C@@H](OCC(=O)CO[C@H]2O[C@@H]3O[C@@]4(C)CC[C@H]5[C@H](C)CC[C@@H]([C@H]2C)[C@@]35OO4)O[C@@H]2O[C@@]3(C)CC[C@H]4[C@H](C)CC[C@@H]1[C@@]24OO3 | 2030 nM | < 10 nM | – | 31 nM | 7240 nM | 15800 nM | < 10 nM | 12600 nM | 28500 nM | > 50000 nM | < 10 nM | 10100 nM | 69 nM | 57000 nM | < 10 nM | 11200 nM | > 23800 | 26 nM | 10400 nM | 80300 nM | – |
| C[C@H]1[C@@H](O[C@H]2CC[C@@H](O[C@H]3O[C@@H]4O[C@@]5(C)CC[C@H]6[C@H](C)CC[C@@H]([C@H]3C)[C@@]46OO5)CC2)O[C@@H]2O[C@@]3(C)CC[C@H]4[C@H](C)CC[C@@H]1[C@@]24OO3 | 34 nM | 27 nM | 3% | 24 nM | 28 nM | 34 nM | 44 nM | 18 nM | 3300 nM | 38800 nM | 20 nM | 20 nM | 24 nM | 42000 nM | 12 nM | 28 nM | > 915 | 24 nM | 7700 nM | 77100 nM | T/C (HL-60 [10]): 34%; T/C (HL-60 [2]): 50%; Activity (HL-60 [11]): 36 days; Activity (Mus musculus [12]): 17%; Activity (Mus musculus [5]): Non-toxic; Activity (HL-60 [6]): 8 days; Activity (Mus musculus [7]): Non-toxic |
| C[C@H]1[C@@H](O[C@H]2CC[C@H](O[C@H]3O[C@@H]4O[C@@]5(C)CC[C@H]6[C@H](C)CC[C@@H]([C@H]3C)[C@@]46OO5)CC2)O[C@@H]2O[C@@]3(C)CC[C@H]4[C@H](C)CC[C@@H]1[C@@]24OO3 | 108 nM | 74 nM | – | 296 nM | 61 nM | 166 nM | 71 nM | 294 nM | – | – | 99 nM | 92 nM | 53 nM | – | 24 nM | 340 nM | > 553 | 77 nM | 7400 nM | 18500 nM | – |
| C[C@H]1[C@@H](OCC(O)CO[C@@H]2C[C@@H]3CC[C@@H](C)[C@@H]4CC[C@@]5(C)OO[C@@]34[C@H](O2)O5)O[C@@H]2O[C@@]3(C)CC[C@H]4[C@H](C)CC[C@@H]1[C@@]24OO3 (stereo not given in full) | 13700 nM | 257 nM | 2% | 14200 nM | 9520 nM | 21400 nM | 8820 nM | 213 nM | 1800 nM | 30800 nM | 298 nM | 8640 nM | 209 nM | 77000 nM | 99 nM | 13800 nM | > 6430 | 368 nM | 5000 nM | 16000 nM | T/C (HL-60 [10]): 34%; T/C (HL-60 [2]): 68%; Activity (HL-60 [11]): 34 days; Activity (Mus musculus [12]): 5%; Activity (Mus musculus [5]): Non-toxic; Activity (HL-60 [6]): 16 days; Activity (Mus musculus [7]): Non-toxic |
| C[C@H]1[C@@H](OCCO[C@H]2O[C@@H]3O[C@@]4(C)CC[C@H]5[C@H](C)CC[C@@H]([C@H]2C)[C@@]35OO4)O[C@@H]2O[C@@]3(C)CC[C@H]4[C@H](C)CC[C@@H]1[C@@]24OO3 | 460 nM | 343 nM | – | 243 nM | 800 nM | 798 nM | 504 nM | 10600 nM | – | – | 42 nM | 300 nM | 36 nM | – | 70 nM | 220 nM | > 64 | 219 nM | – | – | – |
